Article PMC6218659, “Structures of DPAGT1 Explain Glycosylation Disease Mechanisms and Advance TB Antibiotic Design” (Cell, 2018)

Experiments:
DPAGT1 Arg301His = biological target: T1, DPAGT1 Arg301His (Homo sapiens, UniProt Q9H3H5, R301H); assay: Thermostability assay (label free differential scanning fluorimetry); assay type: binding, H. sapiens; conditions: 50 μM compound
T1 construct: combined with the LIC-adapted primers to amplify the complete DPAGT1 gene, including the desired mutations; 6xHis purification tag with TEV site (N, cleaved yes); made in house; host or cells: Spodoptera frugiperda Sf9 insect cells (baculovirus)
T1 sequence (Q9H3H5 1-408 R301H): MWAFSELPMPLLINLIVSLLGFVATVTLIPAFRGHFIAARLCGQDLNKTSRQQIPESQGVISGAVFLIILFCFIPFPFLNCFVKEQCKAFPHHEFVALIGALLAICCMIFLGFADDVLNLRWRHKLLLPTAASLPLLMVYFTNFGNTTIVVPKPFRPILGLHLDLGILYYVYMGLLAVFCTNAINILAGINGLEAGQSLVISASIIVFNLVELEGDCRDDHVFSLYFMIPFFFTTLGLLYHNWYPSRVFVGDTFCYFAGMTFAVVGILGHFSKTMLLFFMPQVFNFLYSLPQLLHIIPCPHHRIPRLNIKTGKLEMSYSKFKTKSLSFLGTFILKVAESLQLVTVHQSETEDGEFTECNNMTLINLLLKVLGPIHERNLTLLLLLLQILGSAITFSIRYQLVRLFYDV
Experimental: (§1) Samples with a volume of 40 μl were prepared containing 0.5 mg/ml protein and 50 μM compound or 5% DMSO in GFB. A glass capillary was dipped into each sample, with the capillary held horizontally to ensure that the capillary was full of the sample. The capillaries were placed on the capillary holder on the Nanotemper Prometheus. Technical triplicates of each sample were prepared, and each experiment was conducted with biological triplicates of each protein. PR.ThermControl software was used to run the experiment and analyse the data. A melting curve from 20 °C – 95 °C at 5 °C/min was performed. The minimum of the first derivative of the 330/350nm ratio was used to determine the Tm1/2.

DPAGT1 Tyr170Cys = biological target: T2, DPAGT1 Tyr170Cys (Homo sapiens, UniProt Q9H3H5, Y170C); assay: as above; assay type: binding, H. sapiens; conditions: 50 μM compound
T2 construct: combined with the LIC-adapted primers to amplify the complete DPAGT1 gene, including the desired mutations; 6xHis purification tag with TEV site (N, cleaved yes); made in house; host or cells: Spodoptera frugiperda Sf9 insect cells (baculovirus)
T2 sequence (Q9H3H5 1-408 Y170C): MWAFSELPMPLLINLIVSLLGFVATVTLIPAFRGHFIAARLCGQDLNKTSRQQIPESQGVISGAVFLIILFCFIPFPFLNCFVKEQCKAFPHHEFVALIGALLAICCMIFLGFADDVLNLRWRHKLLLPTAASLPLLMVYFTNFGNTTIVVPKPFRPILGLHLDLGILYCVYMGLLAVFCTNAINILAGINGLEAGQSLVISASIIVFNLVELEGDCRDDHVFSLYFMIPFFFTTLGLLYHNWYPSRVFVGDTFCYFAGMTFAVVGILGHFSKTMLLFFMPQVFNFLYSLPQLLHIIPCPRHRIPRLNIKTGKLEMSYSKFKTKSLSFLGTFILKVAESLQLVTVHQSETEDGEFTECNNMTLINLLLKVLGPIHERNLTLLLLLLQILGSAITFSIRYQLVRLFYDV
Experimental: as §1

DPAGT1 Leu168Pro = biological target: T3, DPAGT1 Leu168Pro (Homo sapiens, UniProt Q9H3H5, L168P); assay: as above; assay type: binding, H. sapiens; conditions: 50 μM compound
T3 construct: combined with the LIC-adapted primers to amplify the complete DPAGT1 gene, including the desired mutations; 6xHis purification tag with TEV site (N, cleaved yes); made in house; host or cells: Spodoptera frugiperda Sf9 insect cells (baculovirus)
T3 sequence (Q9H3H5 1-408 L168P): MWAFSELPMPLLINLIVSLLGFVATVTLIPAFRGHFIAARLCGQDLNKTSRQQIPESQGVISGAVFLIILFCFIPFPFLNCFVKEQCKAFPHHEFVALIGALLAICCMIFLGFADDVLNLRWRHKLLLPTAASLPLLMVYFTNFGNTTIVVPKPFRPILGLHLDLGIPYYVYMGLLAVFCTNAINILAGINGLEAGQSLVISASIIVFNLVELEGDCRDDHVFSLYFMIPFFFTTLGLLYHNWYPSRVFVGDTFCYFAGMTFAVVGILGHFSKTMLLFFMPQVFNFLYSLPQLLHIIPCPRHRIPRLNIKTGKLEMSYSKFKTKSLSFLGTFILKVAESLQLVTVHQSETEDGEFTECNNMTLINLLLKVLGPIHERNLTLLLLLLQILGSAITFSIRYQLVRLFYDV
Experimental: as §1

DPAGT1 Arg301Cys = biological target: T4, DPAGT1 Arg301Cys (Homo sapiens, UniProt Q9H3H5, R301C); assay: as above; assay type: binding, H. sapiens; conditions: 50 μM compound
T4 construct: combined with the LIC-adapted primers to amplify the complete DPAGT1 gene, including the desired mutations; 6xHis purification tag with TEV site (N, cleaved yes); made in house; host or cells: Spodoptera frugiperda Sf9 insect cells (baculovirus)
T4 sequence (Q9H3H5 1-408 R301C): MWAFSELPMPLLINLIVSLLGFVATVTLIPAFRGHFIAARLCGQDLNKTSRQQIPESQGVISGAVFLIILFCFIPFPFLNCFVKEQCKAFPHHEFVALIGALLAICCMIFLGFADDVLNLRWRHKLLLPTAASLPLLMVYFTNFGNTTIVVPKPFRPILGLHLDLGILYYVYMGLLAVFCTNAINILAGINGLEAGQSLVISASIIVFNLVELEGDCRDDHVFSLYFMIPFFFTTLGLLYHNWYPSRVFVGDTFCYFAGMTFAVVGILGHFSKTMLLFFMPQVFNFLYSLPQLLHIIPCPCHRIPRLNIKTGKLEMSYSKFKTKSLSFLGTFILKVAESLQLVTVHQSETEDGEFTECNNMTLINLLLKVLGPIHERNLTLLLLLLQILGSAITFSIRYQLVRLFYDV
Experimental: as §1

DPAGT1 WT = biological target: T5, DPAGT1 WT (Homo sapiens, UniProt Q9H3H5); assay: as above; assay type: binding, H. sapiens; conditions: 50 μM compound
T5 construct: H. sapiens DPAGT1 (1-408, N-terminal 6 x HIS tag, TEV cleavage site); 6xHis purification tag with TEV site (N, cleaved yes); made in house; host or cells: Spodoptera frugiperda Sf9 insect cells (baculovirus)
T5 sequence (Q9H3H5 1-408): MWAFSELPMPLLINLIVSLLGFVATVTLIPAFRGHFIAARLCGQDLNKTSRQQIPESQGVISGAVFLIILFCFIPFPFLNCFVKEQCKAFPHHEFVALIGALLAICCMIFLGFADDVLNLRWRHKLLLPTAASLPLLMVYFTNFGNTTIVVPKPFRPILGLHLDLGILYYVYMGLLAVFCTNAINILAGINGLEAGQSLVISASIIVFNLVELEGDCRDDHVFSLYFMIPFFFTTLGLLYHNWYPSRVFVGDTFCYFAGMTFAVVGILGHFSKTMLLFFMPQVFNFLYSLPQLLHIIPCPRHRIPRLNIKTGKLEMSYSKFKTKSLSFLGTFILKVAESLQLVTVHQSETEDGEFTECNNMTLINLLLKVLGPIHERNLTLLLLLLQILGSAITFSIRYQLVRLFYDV
Experimental: as §1

DPAGT1 Val264Gly = biological target: T6, DPAGT1 Val264Gly (Homo sapiens, UniProt Q9H3H5, V264G); assay: as above; assay type: binding, H. sapiens; conditions: 50 μM compound
T6 construct: H. sapiens DPAGT1 (1-408, Val264Gly, N-terminal 6 x HIS tag, TEV cleavage site); 6xHis purification tag with TEV site (N, cleaved yes); made in house; host or cells: Spodoptera frugiperda Sf9 insect cells (baculovirus)
T6 sequence (Q9H3H5 1-408 V264G): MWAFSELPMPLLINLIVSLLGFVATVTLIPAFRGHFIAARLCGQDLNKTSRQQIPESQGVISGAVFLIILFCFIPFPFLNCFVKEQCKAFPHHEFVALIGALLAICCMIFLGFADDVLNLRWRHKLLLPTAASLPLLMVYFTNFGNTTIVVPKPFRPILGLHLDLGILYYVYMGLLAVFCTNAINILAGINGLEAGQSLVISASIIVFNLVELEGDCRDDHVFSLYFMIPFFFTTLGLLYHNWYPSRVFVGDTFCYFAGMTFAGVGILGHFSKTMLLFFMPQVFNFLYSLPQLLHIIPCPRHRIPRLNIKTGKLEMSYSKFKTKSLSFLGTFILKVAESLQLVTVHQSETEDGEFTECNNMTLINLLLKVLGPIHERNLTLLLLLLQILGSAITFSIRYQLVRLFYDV
Experimental: as §1

DPAGT1 = biological target: T7, DPAGT1 (Homo sapiens, UniProt Q9H3H5); assay: Radiolabeled substrate enzyme activity assay; assay type: biochemical, H. sapiens; conditions: product inhibition test
T7 construct: H. sapiens DPAGT1 (1-408, N-terminal 6 x HIS tag, TEV cleavage site); 6xHis purification tag with TEV site (N, cleaved yes); made in house; host or cells: Spodoptera frugiperda Sf9 insect cells (baculovirus)
T7 sequence (Q9H3H5 1-408): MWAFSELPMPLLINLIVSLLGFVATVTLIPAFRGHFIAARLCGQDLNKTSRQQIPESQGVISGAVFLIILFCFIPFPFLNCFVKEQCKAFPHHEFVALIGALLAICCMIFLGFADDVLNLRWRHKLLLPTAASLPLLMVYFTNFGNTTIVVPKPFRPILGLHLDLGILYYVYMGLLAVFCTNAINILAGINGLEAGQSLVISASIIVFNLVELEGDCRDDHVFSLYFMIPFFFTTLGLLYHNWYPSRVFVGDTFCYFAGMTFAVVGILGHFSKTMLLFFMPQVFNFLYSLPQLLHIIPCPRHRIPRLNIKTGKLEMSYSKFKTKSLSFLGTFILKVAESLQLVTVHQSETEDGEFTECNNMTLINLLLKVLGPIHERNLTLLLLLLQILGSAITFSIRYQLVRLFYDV
Experimental: 2 μl of 2 μM DPAGT1 WT or mutant proteins in GFB buffer supplemented with 5mM extra MgCl2, 1% OGNG/CHS/cardiolipin and dolichyl monophosphate was combined with 2 μl of UDP-N-acetyl [1-14C] […] The reaction was terminated by the addition of 6 μl of 100% methanol and immediately transferred onto ice. 1 μl of sample was spotted onto a silica coated TLC plate in triplicate and run with a mobile phase consisting of chloroform, methanol, and water at a 65:25:4 ratio respectively. After the run, the TLC plate was dried thoroughly, wrapped in cling film, incubated with a phosphor imaging substrate for 4 days, then phosphor imaged using a Biorad. The pixel density of the spots corresponding to the hydrophobic product was divided by combined pixel density of the product and the substrate and multiplied by the known concentration of substrate added to ascertain the amount of product formed.

[1] = biological target: the molecule itself; assay: crystal structure; space group P6(5)22, one DPAGT1 monomer in the asymmetric unit; dimer formed through a crystallographic 2-fold axis; apo WT, apo Val264Gly and Val264Gly complexes with UDP-GlcNAc/Mg2+ or tunicamycin
[2] = biological target: the molecule itself; assay: native MS; purified DPAGT1 diluted to 10 uM, buffer exchanged into 200 mM ammonium acetate, 0.16% OGNG; Q Exactive modified for high-mass transmission, positive ion mode

Molecule: O=c1ccn([C@@H]2O[C@H](COP(=O)(O)O)[C@@H](O)[C@H]2O)c(=O)[nH]1 [UMP]
- Thermostability (Tm1/2) with added compound (DPAGT1 Arg301His): 51.4±0.9 °C
- Thermostability (Tm1/2) with added compound (DPAGT1 Tyr170Cys): 50.7±0.3 °C
- Thermostability (Tm1/2) with added compound (DPAGT1 Leu168Pro): 50.4±0.6 °C
- Thermostability (Tm1/2) with added compound (DPAGT1 Arg301Cys): 51.4±0.8 °C
- Thermostability (Tm1/2) with added compound (DPAGT1 WT): 51.7±0.2 °C
- Thermostability (Tm1/2) with added compound (DPAGT1 Val264Gly): 50.5±0.2 °C
- effect of adding product on DPAGT1 activity (DPAGT1): no effect

B1: H. sapiens DPAGT1 (1-408, Val264Gly, N-terminal 6 x HIS tag, TEV cleavage site) (enzyme, human, UniProt Q9H3H5 1-408, looked up)
chain: MWAFSELPMPLLINLIVSLLGFVATVTLIPAFRGHFIAARLCGQDLNKTSRQQIPESQGVISGAVFLIILFCFIPFPFLNCFVKEQCKAFPHHEFVALIGALLAICCMIFLGFADDVLNLRWRHKLLLPTAASLPLLMVYFTNFGNTTIVVPKPFRPILGLHLDLGILYYVYMGLLAVFCTNAINILAGINGLEAGQSLVISASIIVFNLVELEGDCRDDHVFSLYFMIPFFFTTLGLLYHNWYPSRVFVGDTFCYFAGMTFAGVGILGHFSKTMLLFFMPQVFNFLYSLPQLLHIIPCPRHRIPRLNIKTGKLEMSYSKFKTKSLSFLGTFILKVAESLQLVTVHQSETEDGEFTECNNMTLINLLLKVLGPIHERNLTLLLLLLQILGSAITFSIRYQLVRLFYDV
notes: human DPAGT1, residues 1-408, full length, with the missense variant Val264Gly found in some congenital myasthenic syndrome patients; After TEV cleavage an additional N-terminal serine remains (measured mass 46135 Da); Used for the apo, UDP-GlcNAc and tunicamycin crystal structures; also called Val264Gly DPAGT1; V264G variant; source: Sf9 insect cells (baculovirus), purified (OGNG/CHS extraction, …)
- binding result [1]: binds

B2: H. sapiens DPAGT1 (1-408, N-terminal 6 x HIS tag, TEV cleavage site), wild type (enzyme, human, UniProt Q9H3H5 1-408, looked up)
chain: MWAFSELPMPLLINLIVSLLGFVATVTLIPAFRGHFIAARLCGQDLNKTSRQQIPESQGVISGAVFLIILFCFIPFPFLNCFVKEQCKAFPHHEFVALIGALLAICCMIFLGFADDVLNLRWRHKLLLPTAASLPLLMVYFTNFGNTTIVVPKPFRPILGLHLDLGILYYVYMGLLAVFCTNAINILAGINGLEAGQSLVISASIIVFNLVELEGDCRDDHVFSLYFMIPFFFTTLGLLYHNWYPSRVFVGDTFCYFAGMTFAVVGILGHFSKTMLLFFMPQVFNFLYSLPQLLHIIPCPRHRIPRLNIKTGKLEMSYSKFKTKSLSFLGTFILKVAESLQLVTVHQSETEDGEFTECNNMTLINLLLKVLGPIHERNLTLLLLLLQILGSAITFSIRYQLVRLFYDV
notes: human dolichyl-phosphate N-acetylglucosamine-phosphotransferase DPAGT1 (E.C. 2.7.8.15), residues 1-408, full-length wild type; After TEV cleavage an additional N-terminal serine remains (measured mass 46177 Da); Integral membrane protein kept in OGNG/CHS/cardiolipin (or DOPG) detergent-lipid buffer; also called WT DPAGT1; GPT; source: Sf9 insect cells (baculovirus), purified (OGNG/CHS extraction, …)
- stoichiometry N [2]: 2
